From the supplement of paper PMC10307832

Experiments:
Experiment in all cases: relative viability (nuclei count vs DMSO), 5 days (fraction); higher = more cells survive
[1] = compound: CS(=O)(=O)c1ccc(-c2cnc(N)c(C(=O)Nc3ccccc3)n2)cc1 [VE-821] + COc1cccc2cc(-c3nc([C@H]4CC[C@H](C(=O)O)CC4)n4ncnc(N)c34)[nH]c12 [OSI-027] (partner 0.5 µM)
Summary of the method: (§1)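 Lung cancer cell lines in 1536-well plates got either a single drug or a fixed anchor-drug dose together with five library-drug doses (not always all listed) in √10 steps, by pin tool, on the day after seeding. Nuclei were counted after 5 days, and relative viability is the treated-to-vehicle ratio of nuclei counts. Values are medians of duplicate plates.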

[2] = compound: CS(=O)(=O)c1ccc(-c2cnc(N)c(C(=O)Nc3ccccc3)n2)cc1 [VE-821] + Nc1nc2[nH]cc(CCc3ccc(C(=O)N[C@@H](CCC(=O)O)C(=O)O)cc3)c2c(=O)[nH]1 [Pemetrexed] (partner 0.2 µM)
Summary of the method: as §1

[3] = compound: CS(=O)(=O)c1ccc(-c2cnc(N)c(C(=O)Nc3ccccc3)n2)cc1 [VE-821] + O=C(CCCCCCC(=O)Nc1ccccc1)NO [Vorinostat] (partner 1 µM)
Summary of the method: as §1

[4] = compound: CS(=O)(=O)c1ccc(C(=O)Nc2ccc(Cl)c(-c3ccccn3)c2)c(Cl)c1 [Vismodegib] + CS(=O)(=O)N1CCN(Cc2cc3nc(-c4cccc5[nH]ncc45)nc(N4CCOCC4)c3s2)CC1 [Pictilisib] (partner 1 µM)
Summary of the method: as §1

Cell Line	relative viability ([1]; first compound 0.08 µM)	relative viability ([1]; first compound 0.253 µM)	relative viability ([1]; first compound 0.8 µM)	relative viability ([1]; first compound 2.53 µM)	relative viability ([1]; first compound 8 µM)	relative viability ([2]; first compound 0.08 µM)	relative viability ([2]; first compound 0.253 µM)	relative viability ([2]; first compound 0.8 µM)	relative viability ([2]; first compound 2.53 µM)	relative viability ([2]; first compound 8 µM)	relative viability ([3]; first compound 0.08 µM)	relative viability ([3]; first compound 0.253 µM)	relative viability ([3]; first compound 0.8 µM)	relative viability ([3]; first compound 2.53 µM)	relative viability ([3]; first compound 8 µM)	relative viability ([4]; first compound 0.08 µM)	relative viability ([4]; first compound 0.253 µM)	relative viability ([4]; first compound 0.8 µM)	relative viability ([4]; first compound 2.53 µM)	relative viability ([4]; first compound 8 µM)
LXF-289	0.949	0.726	0.902	0.971	0.759	0.902	0.928	0.936	1.01	0.847	0.78	0.843	0.827	0.812	0.786	0.735	0.783	0.765	0.883	0.802
NCI-H23	0.486	0.531	0.483	0.624	0.331	0.919	0.838	0.55	0.463	0.272	0.759	0.476	0.309	0.285	0.139	0.535	0.462	0.432	0.452	0.425
NCI-H322M	0.533	0.519	0.577	0.482	0.286	0.616	0.639	0.542	0.532	0.385	0.903	0.831	0.899	0.818	0.499	0.544	0.445	0.527	0.484	0.509
NCI-H358	0.983	0.875	0.727	0.79	0.48	0.177	0.199	0.177	0.166	0.122	0.737	0.694	0.712	0.608	0.329	0.301	0.326	0.294	0.37	0.34
NCI-H441	0.718	0.641	0.644	0.72	0.583	0.283	0.264	0.24	0.276	0.264	0.833	0.765	0.951	0.921	0.435	0.505	0.444	0.536	0.391	0.502
NCI-H460	0.814	0.628	0.409	0.292	0.0463	0.0644	0.0622	0.0609	0.056	0.0393	1.02	0.619	0.528	0.111	0.0517	0.3	0.385	0.286	0.318	0.313
NCI-H520	0.257	0.257	0.195	0.278	0.208	0.75	0.657	0.582	0.361	0.223	0.614	0.779	0.719	0.603	0.353	0.332	0.254	0.271	0.274	0.309
NCI-H596	0.648	0.519	0.534	0.558	0.451	0.511	0.48	0.485	0.454	0.374	0.703	0.579	0.604	0.557	0.51	0.385	0.404	0.391	0.391	0.397
NCI-H647	0.748	0.786	0.676	0.509	0.376	0.157	0.139	0.125	0.0986	0.0738	0.556	0.689	0.646	0.469	0.287		0.407	0.389	0.401	0.586
NCI-H650	0.499	0.473	0.57	0.455	0.532	0.934	0.846	1.02	0.9	0.835	0.443	0.403	0.395	0.471	0.409	0.799	0.733	0.643	0.945	0.947
NCI-H661	0.805	0.743	0.783	0.758	0.663	0.979	0.923	0.84	0.744	0.571	0.839	0.836	0.815	0.783	0.627	0.3	0.392	0.403	0.331	0.367
NCI-H838	0.431	0.341	0.329	0.425	0.435	0.259	0.264	0.21	0.17	0.159	0.755	0.688	0.697	0.69	0.542	0.389	0.408	0.415	0.489	0.504
NCI-H1355	0.443	0.346	0.375	0.442	0.307	1.15	0.976	0.888	1.05	0.903	0.819	0.61	0.663	0.72	0.57	0.391	0.508	0.31	0.432	0.448
NCI-H1395	0.684	0.605	0.607	0.639	0.484	0.792	0.789	0.827	0.745	0.486	0.69	0.647	0.705	0.638	0.43	0.573	0.593	0.491	0.631	0.752
NCI-H1437	1.12	0.831	0.838	0.851	0.756	0.331	0.316	0.281	0.173	0.187	0.847	0.797	0.901	0.777	0.611	0.504	0.487	0.47	0.536	0.483
NCI-H1650	0.757	0.542	0.546	0.613	0.415	0.344	0.355	0.289	0.386	0.307	0.498	0.737	0.524	0.578	0.437	0.557	0.587	0.558	0.529	0.639

Cell Line	relative viability ([1]; first compound 0.08 µM)	relative viability ([1]; first compound 0.253 µM)	relative viability ([1]; first compound 0.8 µM)	relative viability ([1]; first compound 2.53 µM)	relative viability ([1]; first compound 8 µM)	relative viability ([2]; first compound 0.08 µM)	relative viability ([2]; first compound 0.253 µM)	relative viability ([2]; first compound 0.8 µM)	relative viability ([2]; first compound 2.53 µM)	relative viability ([2]; first compound 8 µM)	relative viability ([3]; first compound 0.08 µM)	relative viability ([3]; first compound 0.253 µM)	relative viability ([3]; first compound 0.8 µM)	relative viability ([3]; first compound 2.53 µM)	relative viability ([3]; first compound 8 µM)	relative viability ([4]; first compound 0.08 µM)	relative viability ([4]; first compound 0.253 µM)	relative viability ([4]; first compound 0.8 µM)	relative viability ([4]; first compound 2.53 µM)	relative viability ([4]; first compound 8 µM)
NCI-H1651	0.781	0.629	0.578	0.686	0.521	0.576	0.616	0.625	0.554	0.545	0.562	0.606	0.583	0.556	0.531	0.579	0.549	0.523	0.54	0.637
NCI-H1666	0.903	0.785	0.948	0.936	0.703	0.941	0.841	0.779	0.558	0.571	1.14	1.06	1.18	1.01	0.942	0.341	0.41	0.42	0.434	0.537
NCI-H1734	0.701	0.529	0.599	0.529	0.331	0.413	0.391	0.374	0.351	0.297	1.03	0.762	0.733	0.707	0.44	0.429	0.446	0.429	0.469	0.512
NCI-H1755	0.795	0.709	0.636	0.755	0.632	0.464	0.655	0.431	0.361	0.247	0.778	0.638	0.734	0.792	0.615	0.43	0.406	0.471	0.448	0.449
NCI-H1793	0.247	0.305	0.232	0.272	0.242	1.2	0.769		1.13	0.565	0.996	0.616		0.837	0.615		0.413	0.411	0.367	0.325
NCI-H1915	0.701	0.593	0.618	0.684	0.534	0.499	0.432	0.344	0.311	0.23	0.623	0.509	0.451	0.536	0.457	0.997	1.01	0.851	0.826	0.727
NCI-H1944	0.441	0.354	0.383	0.463	0.328	0.693	0.695	0.495	0.384	0.172	0.581	0.498	0.498	0.492	0.243	0.354	0.349	0.308	0.327	0.345
NCI-H1975	0.901	0.589		0.471	0.439	0.297	0.282	0.264	0.213	0.167	0.749	0.697	0.706	0.647	0.516	0.294	0.311	0.264	0.304	0.307
NCI-H1993	0.532	0.553	0.506	0.468	0.495	0.6	0.596	0.35	0.638	0.601	0.759	0.657	0.966	0.762	0.548	0.875	0.947	0.771	0.792	0.822
NCI-H2009	0.693	0.557	0.598	0.618	0.318	1.03	1	1.02	0.851	0.732	0.771	0.668	0.699	0.76	0.683	0.818	0.858	0.727	0.812	0.908
NCI-H2023	0.392	0.311	0.274	0.274	0.11	0.24	0.202	0.17	0.123	0.0894	0.783	0.467	0.441	0.243	0.121	0.268	0.229	0.195	0.238	0.254
NCI-H2085	0.788	0.736	0.489	0.747	0.334	0.936	0.848	0.61		0.612	0.935	0.754	0.609		0.511	0.418	0.447	0.377	0.444	0.417
NCI-H2087	0.537	0.576	0.515	0.683	0.495	0.667	0.634	0.65	0.679	0.67	0.667	0.666	0.838	0.79	0.675	0.673	0.702	0.843	0.874	0.732
NCI-H2126	0.757	0.651	0.645	0.59	0.49	0.687	0.585	0.693	0.475	0.31	0.722	0.78	0.749	0.727	0.497	0.519	0.521	0.446	0.493	0.484
NCI-H2170	0.638	0.757	0.732	0.648	0.636	0.277	0.23	0.281	0.234	0.177	0.923	0.687	0.872	0.805	0.635	0.301	0.286	0.306	0.347	0.325
NCI-H2228	0.636	0.459	0.628	0.695	0.2	0.333	0.373	0.301	0.253	0.156	0.758	0.535	0.294	0.59	0.347	0.493	0.538	0.359	0.413	0.347
